Source: ChEMBL document CHEMBL1150847, “New lactone-containing metabolites from a marine-derived bacterium of the genus Streptomyces” (J Nat Prod, 2001)
The source made the active and inactive calls. The calls are words filed in the database; no cut-off is given here.

System: Candida albicans
Experiment: Antifungal activity against Candida albicans by paper disk method
Assay type: functional, organism-based

Row | Structure (SMILES) | Activity
1 | CC(C)(O)CCCCCC1C=CC(=O)O1 (configuration not stated) | Active
2 | CCC(C)C[C@H]1C(=O)O[C@@H](C)[C@@H]1O (some centres not stated) | Active
3 | CC(C)CC[C@H]1C(=O)O[C@@H](C)[C@@H]1O | Active
4 | CC(=O)C(C)CCCCCC1C=CC(=O)O1 (configuration not stated) | Active
5 | CCCC[C@H]1C(=O)O[C@@H](C)[C@@H]1O | Active
6 | CCC(C)(O)CCCCCC1C=CC(=O)O1 (configuration not stated) | Active
7 | CC(C)CC[C@@H]1C(=O)O[C@@H](C)[C@@H]1O | Active
